Laboratory results taken from the NIST ThermoML archive (doi:10.1016/j.jct.2012.12.022).

Assay: mn = molality of the nth substance listed, in mol/kg
Settings: 101 kPa, Liquid; for speed of sound: Sing-around technique in a fixed-path interferometer; for mass density: Vibrating tube method

O=C([O-])CC(O)(CC(=O)[O-])C(=O)[O-].[K+].[K+].[K+] [potassium citrate] + O
Settings | mass density, 288.15 K [kg/m3] | mass density, 293.15 K [kg/m3] | mass density, 298.15 K [kg/m3] | mass density, 303.15 K [kg/m3] | speed of sound, 288.15 K [m/s] | speed of sound, 293.15 K [m/s] | speed of sound, 298.15 K [m/s] | speed of sound, 303.15 K [m/s]
m1 = 0.00361 | 999.9 | 998.989 | 997.839 | 996.386 | 1467.4 | 1483.1 | 1497.3 | 1509.7
m1 = 0.05427 | 1010.36 | 1009.25 | 1007.98 | 1006.52 | 1478.4 | 1493.8 | 1507.6 | 1519.7
m1 = 0.09681 | 1018.59 | 1017.45 | 1016.12 | 1014.61 | 1487.2 | 1502.1 | 1515.8 | 1527.7
m1 = 0.2001 | 1038.27 | 1037.36 | 1035.59 | 1034.01 | 1507 | 1521.7 | 1534.6 | 1545.9
m1 = 0.2914 | 1055.11 | 1053.58 | 1051.92 | 1050.18 | 1524.1 | 1537.8 | 1550.6 | 1561.2
m1 = 0.3859 | 1071.84 | 1070.62 | 1069.02 | 1066.43 | 1541.9 | 1555.4 | 1567.7 | 1577.7
m1 = 0.4948 | 1090.12 | 1088.43 | 1086.46 | 1084.57 | 1561.8 | 1572.8 | 1584.8 | 1595.2
m1 = 0.5799 | 1104.11 | 1102.38 | 1100.2 | 1098.17 | 1576.6 | 1588 | 1598.8 | 1609.1
m1 = 0.6983 | 1122.79 | 1120.89 | 1118.45 | 1116.27 | 1597.6 | 1608.2 | 1618.3 | 1627.5
m1 = 0.7576 | 1131.78 | 1129.85 | 1127.36 | 1125.04 | 1607.6 | 1618.9 | 1627.7 | 1637.2
m1 = 0.8939 | 1151.83 | 1149.58 | 1146.96 | 1144.2 | 1630.8 | 1641.3 | 1649.4 | 1657.5
